Assay results published in patent US20260265329A1, “POLYPEPTIDE AND DERIVATIVE THEREOF, COMPOSITION, AND USE THEREOF” (HANGZHOU SCIWIND BIOSCIENCES CO., LTD., priority 2023, published 2026).
Starred links: 1 amine or outer side, 2 acyl side, 3 side chain; linkers in the order of their positions; H or OH if unused. Non-standard residues stand in square brackets, D forms with d. Residues, ends and D or L forms follow the SMILES beside them. *: point of attachment. C20 diacid = O=C(O)CCCCCCCCCCCCCCCCCCC(=O)*; γGlu = O=C(O)[C@H](CCC(=O)[*:2])N[*:1]; Hyp = O=C(O)[C@@H]1C[C@@H](O)CN1; NMeD = CN[C@@H](CC(=O)O)C(=O)O; NMeN = CN[C@@H](CC(N)=O)C(=O)O

Tests used:
[1] = molecular target: T1, human amylin receptors (Homo sapiens, UniProt O60896+P30988); experiment: Luciferase assay in stably transfected amylin receptor/CRE-luc CHO cell line; assay type: cell-based; settings: for Relative activity: EC50 ratio of Cagrilintide to the compound, Cagrilintide 100%; for EC50: amylin receptor/CRE-luc CHO cells, 24 hours incubation, luminescence
T1 construct: host or cells: CHO-K1/Ga15/AMY3 cells, further stably transfected with a CRE-luciferase plasmid
T1 sequence (P30988 25-474): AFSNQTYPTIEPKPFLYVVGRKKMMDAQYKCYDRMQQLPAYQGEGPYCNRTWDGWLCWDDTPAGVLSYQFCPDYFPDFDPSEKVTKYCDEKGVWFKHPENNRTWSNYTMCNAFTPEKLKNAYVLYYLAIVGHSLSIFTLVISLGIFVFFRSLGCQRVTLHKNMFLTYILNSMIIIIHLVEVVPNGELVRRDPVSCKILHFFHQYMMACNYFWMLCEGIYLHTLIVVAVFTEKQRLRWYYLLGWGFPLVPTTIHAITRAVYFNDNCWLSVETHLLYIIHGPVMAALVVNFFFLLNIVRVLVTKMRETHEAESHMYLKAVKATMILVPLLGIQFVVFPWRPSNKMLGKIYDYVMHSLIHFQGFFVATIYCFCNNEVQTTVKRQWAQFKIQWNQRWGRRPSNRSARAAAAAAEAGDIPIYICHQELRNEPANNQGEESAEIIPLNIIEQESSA
T1 sequence (O60896 24-148 partner): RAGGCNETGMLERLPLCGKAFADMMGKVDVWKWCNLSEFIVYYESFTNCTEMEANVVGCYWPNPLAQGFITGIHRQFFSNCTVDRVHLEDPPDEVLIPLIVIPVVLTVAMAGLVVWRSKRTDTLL

[2] = Heat accelerated stability assay, 40° C., detection on 10 d and 20 d; assay type: physicochemical; settings: 1 mg/mL, pH about 7.4, 40° C.
Experimental: The derivatives (1 mg/mL) were mixed with sodium dihydrogen phosphate (1.42 mg/mL) and dissolved in ultrapure water. After adjusting pH to about 7.4 with hydrochloric acid/sodium hydroxide, the solution was filtered into a sterilized vial in a clean bench using a 0.22 μm sterile filter. The vial was then capped and placed into the stability test chamber at 40° C. Detections were made on 10d and 20d, and during the assay changes in the characteristics and properties of the polypeptides were observed and recorded. The sample was then centrifuged for 3 min at 10000 rpm at 4° C., and the supernatant was transferred to a liquid phase sample vial for detecting the concentration and purity of the polypeptides using liquid phase chromatography described as below.
Flow rate: 1.0 mL/min; Autosampler temperature: 25° C.; Column temperature: 25° C.; Detection wavelength: 214 nm; Mobile phase A: 110 mM phosphate buffer (pH 5.8): ACN=90:10; Mobile phase B: ACN: IPA: H2O=85:5:10; and Gradient of elution listed in Table 6: […]

Row | Relative activity [1] [%] | EC50 [1] [nM] | Reduction in purity, 10 d [2] [%] | Reduction in purity, 20 d [2] [%] | SMILES
1 | 130 | 0.1 | 21.09 | 37.35 | CC[C@H](C)[C@H](NC(=O)[C@@H]1CCCN1C(=O)[C@H](CCCCN)NC(=O)[C@H](CC(C)C)NC(=O)[C@H](CC(N)=O)N(C)C(=O)[C@H](CC(N)=O)NC(=O)[C@H](CO)NC(=O)[C@H](CO)NC(=O)[C@H](Cc1c[nH]cn1)NC(=O)[C@H](CCCNC(=N)N)NC(=O)[C@H](CC(C)C)NC(=O)[C@H](Cc1ccccc1)NC(=O)[C@H](CC(=O)O)NC(=O)[C@H](C)NC(=O)[C@H](CC(C)C)NC(=O)[C@H](CCCNC(=N)N)NC(=O)[C@H](CCC(N)=O)NC(=O)[C@@H](NC(=O)[C@H](C)NC(=O)[C@H](C)NC(=O)[C@@H](NC(=O)[C@H](CO)NC(=O)[C@H](CC(C)C)NC(=O)[C@H](CCC(N)=O)NC(=O)[C@H](CO)NC(=O)[C@H](C)NC(=O)CC[C@H](NC(=O)CCCCCCCCCCCCCCCCCCC(=O)O)C(=O)O)[C@@H](C)O)[C@@H](C)O)C(=O)N[C@@H](CC(C)C)C(=O)N1CCC[C@H]1C(=O)N1CCC[C@H]1C(=O)N[C@H](C(=O)N[C@@H](CC(N)=O)C(=O)N[C@H](C(=O)NCC(=O)N[C@@H](CO)C(=O)N[C@@H](CC(N)=O)C(=O)N[C@H](C(=O)N1C[C@H](O)C[C@H]1C(N)=O)[C@@H](C)O)C(C)C)[C@@H](C)O [M44] ({C20 diacid-γGlu}-ASQLSTAATQRLADFLRHSSN[NMeN]LKPILPPTNVGSNT[Hyp]-NH2)
2 | 32 | 0.28 | 4.8 |  | CC[C@H](C)[C@H](NC(=O)[C@@H]1CCCN1C(=O)[C@H](CCCCN)NC(=O)[C@H](CC(C)C)NC(=O)[C@H](CCC(=O)O)NC(=O)[C@H](CCC(=O)O)NC(=O)[C@H](CO)NC(=O)[C@H](CO)NC(=O)[C@H](Cc1c[nH]cn1)NC(=O)[C@H](CCCNC(=N)N)NC(=O)[C@H](CC(C)C)NC(=O)[C@H](Cc1ccccc1)NC(=O)[C@H](CC(=O)O)NC(=O)[C@H](C)NC(=O)[C@H](CC(C)C)NC(=O)[C@H](CCCNC(=N)N)NC(=O)[C@H](CCC(N)=O)NC(=O)[C@@H](NC(=O)[C@H](C)NC(=O)[C@H](C)NC(=O)[C@@H](NC(=O)[C@H](CO)NC(=O)[C@H](CC(C)C)NC(=O)[C@H](CCC(N)=O)NC(=O)[C@H](CO)NC(=O)[C@H](C)NC(=O)CC[C@H](NC(=O)CCCCCCCCCCCCCCCCCCC(=O)O)C(=O)O)[C@@H](C)O)[C@@H](C)O)C(=O)N[C@@H](CC(C)C)C(=O)N1CCC[C@H]1C(=O)N1CCC[C@H]1C(=O)N[C@H](C(=O)N[C@@H](CC(N)=O)C(=O)N[C@H](C(=O)NCC(=O)N[C@@H](CO)C(=O)N[C@@H](CC(N)=O)C(=O)N[C@H](C(=O)N1C[C@H](O)C[C@H]1C(N)=O)[C@@H](C)O)C(C)C)[C@@H](C)O [M42] ({C20 diacid-γGlu}-ASQLSTAATQRLADFLRHSSEELKPILPPTNVGSNT[Hyp]-NH2)
3 | 113 | 0.08 | 9.25 |  | CC[C@H](C)[C@H](NC(=O)[C@@H]1CCCN1C(=O)[C@H](CCCCN)NC(=O)[C@H](CC(C)C)NC(=O)[C@H](CC(N)=O)NC(=O)[C@H](CCC(=O)O)NC(=O)[C@H](CO)NC(=O)[C@H](CO)NC(=O)[C@H](Cc1c[nH]cn1)NC(=O)[C@H](CCCNC(=N)N)NC(=O)[C@H](CC(C)C)NC(=O)[C@H](Cc1ccccc1)NC(=O)[C@H](CC(=O)O)NC(=O)[C@H](C)NC(=O)[C@H](CC(C)C)NC(=O)[C@H](CCCNC(=N)N)NC(=O)[C@H](CCC(N)=O)NC(=O)[C@@H](NC(=O)[C@H](C)NC(=O)[C@H](C)NC(=O)[C@@H](NC(=O)[C@H](CO)NC(=O)[C@H](CC(C)C)NC(=O)[C@H](CCC(N)=O)NC(=O)[C@H](CO)NC(=O)[C@H](C)NC(=O)CC[C@H](NC(=O)CCCCCCCCCCCCCCCCCCC(=O)O)C(=O)O)[C@@H](C)O)[C@@H](C)O)C(=O)N[C@@H](CC(C)C)C(=O)N1CCC[C@H]1C(=O)N1CCC[C@H]1C(=O)N[C@H](C(=O)N[C@@H](CC(N)=O)C(=O)N[C@H](C(=O)NCC(=O)N[C@@H](CO)C(=O)N[C@@H](CC(N)=O)C(=O)N[C@H](C(=O)N1C[C@H](O)C[C@H]1C(N)=O)[C@@H](C)O)C(C)C)[C@@H](C)O [M47] ({C20 diacid-γGlu}-ASQLSTAATQRLADFLRHSSENLKPILPPTNVGSNT[Hyp]-NH2)
4 | 186 | 0.07 | 7.76 | 14.46 | CC[C@H](C)[C@H](NC(=O)[C@@H]1CCCN1C(=O)[C@H](CCCCN)NC(=O)[C@H](CC(C)C)NC(=O)[C@H](CC(N)=O)NC(=O)[C@H](C)NC(=O)[C@H](CO)NC(=O)[C@H](CO)NC(=O)[C@H](Cc1c[nH]cn1)NC(=O)[C@H](CCCNC(=N)N)NC(=O)[C@H](CC(C)C)NC(=O)[C@H](Cc1ccccc1)NC(=O)[C@H](CC(=O)O)NC(=O)[C@H](C)NC(=O)[C@H](CC(C)C)NC(=O)[C@H](CCCNC(=N)N)NC(=O)[C@H](CCC(N)=O)NC(=O)[C@@H](NC(=O)[C@H](C)NC(=O)[C@H](C)NC(=O)[C@@H](NC(=O)[C@H](CO)NC(=O)[C@H](CC(C)C)NC(=O)[C@H](CCC(N)=O)NC(=O)[C@H](CO)NC(=O)[C@H](C)NC(=O)CC[C@H](NC(=O)CCCCCCCCCCCCCCCCCCC(=O)O)C(=O)O)[C@@H](C)O)[C@@H](C)O)C(=O)N[C@@H](CC(C)C)C(=O)N1CCC[C@H]1C(=O)N1CCC[C@H]1C(=O)N[C@H](C(=O)N[C@@H](CC(N)=O)C(=O)N[C@H](C(=O)NCC(=O)N[C@@H](CO)C(=O)N[C@@H](CC(N)=O)C(=O)N[C@H](C(=O)N1C[C@H](O)C[C@H]1C(N)=O)[C@@H](C)O)C(C)C)[C@@H](C)O [M50] ({C20 diacid-γGlu}-ASQLSTAATQRLADFLRHSSANLKPILPPTNVGSNT[Hyp]-NH2)
5 | 129 | 0.07 | 6.54 |  | CC[C@H](C)[C@H](NC(=O)[C@@H]1CCCN1C(=O)[C@H](CCCCN)NC(=O)[C@H](CC(C)C)NC(=O)[C@H](CC(=O)O)N(C)C(=O)[C@H](CC(N)=O)NC(=O)[C@H](CO)NC(=O)[C@H](CO)NC(=O)[C@H](Cc1c[nH]cn1)NC(=O)[C@H](CCCNC(=N)N)NC(=O)[C@H](CC(C)C)NC(=O)[C@H](Cc1ccccc1)NC(=O)[C@H](CC(=O)O)NC(=O)[C@H](C)NC(=O)[C@H](CC(C)C)NC(=O)[C@H](CCCNC(=N)N)NC(=O)[C@H](CCC(N)=O)NC(=O)[C@@H](NC(=O)[C@H](C)NC(=O)[C@H](C)NC(=O)[C@@H](NC(=O)[C@H](CO)NC(=O)[C@H](CC(C)C)NC(=O)[C@H](CCC(N)=O)NC(=O)[C@H](CO)NC(=O)[C@H](C)NC(=O)CC[C@H](NC(=O)CCCCCCCCCCCCCCCCCCC(=O)O)C(=O)O)[C@@H](C)O)[C@@H](C)O)C(=O)N[C@@H](CC(C)C)C(=O)N1CCC[C@H]1C(=O)N1CCC[C@H]1C(=O)N[C@H](C(=O)N[C@@H](CC(N)=O)C(=O)N[C@H](C(=O)NCC(=O)N[C@@H](CO)C(=O)N[C@@H](CC(N)=O)C(=O)N[C@H](C(=O)N1C[C@H](O)C[C@H]1C(N)=O)[C@@H](C)O)C(C)C)[C@@H](C)O [M45] ({C20 diacid-γGlu}-ASQLSTAATQRLADFLRHSSN[NMeD]LKPILPPTNVGSNT[Hyp]-NH2)
6 | 178 | 0.09 | 7.91 | 15.42 | CC[C@H](C)[C@H](NC(=O)[C@@H]1CCCN1C(=O)[C@H](CCCCN)NC(=O)[C@H](CC(C)C)NC(=O)[C@H](CC(N)=O)NC(=O)[C@H](Cc1c[nH]cn1)NC(=O)[C@H](CO)NC(=O)[C@H](CO)NC(=O)[C@H](Cc1c[nH]cn1)NC(=O)[C@H](CCCNC(=N)N)NC(=O)[C@H](CC(C)C)NC(=O)[C@H](Cc1ccccc1)NC(=O)[C@H](CC(=O)O)NC(=O)[C@H](C)NC(=O)[C@H](CC(C)C)NC(=O)[C@H](CCCNC(=N)N)NC(=O)[C@H](CCC(N)=O)NC(=O)[C@@H](NC(=O)[C@H](C)NC(=O)[C@H](C)NC(=O)[C@@H](NC(=O)[C@H](CO)NC(=O)[C@H](CC(C)C)NC(=O)[C@H](CCC(N)=O)NC(=O)[C@H](CO)NC(=O)[C@H](C)NC(=O)CC[C@H](NC(=O)CCCCCCCCCCCCCCCCCCC(=O)O)C(=O)O)[C@@H](C)O)[C@@H](C)O)C(=O)N[C@@H](CC(C)C)C(=O)N1CCC[C@H]1C(=O)N1CCC[C@H]1C(=O)N[C@H](C(=O)N[C@@H](CC(N)=O)C(=O)N[C@H](C(=O)NCC(=O)N[C@@H](CO)C(=O)N[C@@H](CC(N)=O)C(=O)N[C@H](C(=O)N1C[C@H](O)C[C@H]1C(N)=O)[C@@H](C)O)C(C)C)[C@@H](C)O [M52] ({C20 diacid-γGlu}-ASQLSTAATQRLADFLRHSSHNLKPILPPTNVGSNT[Hyp]-NH2)
